Results taken from US20260216177A1, “CO-DRUG, CO-ADMINISTRATION, AND SEQUENTIAL ADMINISTRATION OF SELECTIVE TTR LIGAND AND C20-D3-RETINOL FOR ELIMINATION OF MECHANISM-BASED OCULAR ADVERSE EFFECTS IN TREATING MACULAR DEGENERATION AND TTR AMYLOIDOSIS” (The Trustees of Columbia University in the City of New York, priority 2023, published 2026).
Entries after “also recorded” stand apart in the source; their conditions may differ.

Key:
[1] = in vivo; cited from earlier work
TTR tetramers = TTR tetramers (Homo sapiens, UniProt P02766); details: cited from earlier work
RBP4 = RBP4 (Homo sapiens, UniProt P02753); details: cited from earlier work
Balb/c mice = assay: Retinal function by electroretinography (scotopic ERG a-wave) in treated Balb/c mice; format: in vivo; details: 1.89 log cd*s/m2 light intensity; 25 mg/kg daily oral, 10 days
Procedure: The experiments were conducted in Balb/c mice. Three groups of mice were used: control untreated mice; mice treated with ACPHS-14; and mice treated with the ACPHS-14 plus β-carotene combination. ACPHS-14 was administered through oral gavage at a 25 mg/kg dose formulated into the chow to ensure a standard daily oral dosing of the compound at the 25 mg/kg dose. β-carotene was dissolved in olive oil and was administered through oral gavage daily at a daily 6 mg/kg dose. Dosing duration was 10 days. Following compound dosing, retinal function in the mice was assessed by ERG as previously described (Racz, B. et al. 2018).

serum RBP4 = details: mice; cited from earlier work
Abca4-/- mouse model = details: cited from earlier work
rhodopsin = assay: Rhodopsin measured spectrophotometrically in retinal extracts of treated Balb/c mice; format: in vivo; details: Balb/c (wild-type) mice, 25 mg/kg daily oral, 10 days
Procedure: Thus, ACPHS-14 was used as a representative “first component” of the present disclosure in order to assess the feasibility of using β-carotene as the “second component” in the co-drug strategy. Accordingly, an experiment was conducted to determine whether partial reduction in functional rhodopsin (opsin with conjugated 11-cis-retinal) induced by oral ACPHS-14 in mice can be compensated by co-administration with β-carotene. An experiment was also conducted to determine whether co-administration of ACPHS-14 and β-carotene can restore retinal function as can be assessed by electroretinography (ERG). It was previously reported that ACPHS-14 can induce a pronounced reduction in serum RBP4 along with stabilization of TTR tetramers (Cioffi, C. L. et al. 2021).
The experiments were conducted in Balb/c mice. Three groups of mice were used: control untreated mice; mice treated with ACPHS-14; and mice treated with the ACPHS-14 plus β-carotene combination. […] Following compound dosing, retinal function in the mice was assessed by ERG as previously described (Racz, B. et al. 2018). […] Rhodopsin was measured spectrophotometrically in the retinal extracts using a previously published protocol (Racz, B. et al. 2018).

[2] = in vitro; cited from earlier work
[3] = cited from earlier work
[4] = cited from earlier work; remark: listed apart in the source
[5] = ATTR-CM patients, Phase III; cited from earlier work
[6] = Phase 2, dry AMD patients; no ocular AEs with placebo; cited from earlier work
[7] = long-term use in cancer patients; cited from earlier work
[8] = patients treated for TTR amyloidosis; cited from earlier work

Cc1n[nH]c(C)c1N1CCN(c2cc(C(=O)O)ccc2F)CC1 [ACPHS-14]
oral bioavailability [1]: orally bioavailable | stabilization of TTR tetramers (TTR tetramers): inducing stabilization of TTR tetramers | competition with retinol binding to RBP4 (RBP4): does not compete with retinol binding to RBP4 | reduction of scotopic ERG a-wave amplitude in comparison to untreated mice (Balb/c mice): 45% | RBP4-lowering efficacy (serum RBP4): excellent RBP4-lowering efficacy; also recorded: significantly decreasing the concentration of serum RBP4 | bisretinoid reduction (Abca4-/- mouse model; Abca4-/- mouse model): excellent bisretinoid reduction | rhodopsin in comparison to untreated mice (rhodopsin): significantly reduced rhodopsin

[2H]C([2H])([2H])C(/C=C/C=C(C)/C=C/C1=C(C)CCCC1(C)C)=C\C=O [C20-D3-retinaldehyde]
rate of dimer formation relative to unlabeled retinaldehyde (times less rapidly) [2]: 12 times | reduction of bisretinoid A2E formation [2]: 7 fold

[2H]C([2H])([2H])C(/C=C/C=C(C)/C=C/C1=C(C)CCCC1(C)C)=C\COC(C)=O [C20-D3-retinyl acetate]
inhibition of bisretinoid synthesis and normalization of complement system dysregulation in the retina (Abca4-/- mouse model; Abca4-/- mice, model of Stargardt disease (STGD1)): effective

CC(=O)N1CCc2c(C(=O)N3CCC(c4ccc(F)c(F)c4C(F)(F)F)CC3)n[nH]c2C1 [Tinlarebant]
ocular adverse effects in a subset of patients [3]: asymptomatic delayed dark adaptation (measured only instrumentally) or symptomatic xanthopsia

O=C(O)c1ccc2nc(-c3cc(Cl)cc(Cl)c3)oc2c1 [compound 3, tafamidis]
patients who do not respond [4]: Approximately 30% | reduction of the rate of cardiovascular-related hospitalizations compared to placebo controls [5]: 32% | reduction of the risk of death compared to placebo controls [5]: 30%

CC1=C(/C=C/C(C)=C/C=C/C(C)=C/C(=O)Nc2ccc(O)cc2)C(C)(C)CCC1 [fenretinide]
drug-treated patients with reversible reduction in dark adaptation [6]: ~ 10% | yearly prevalence of transient and reversible ocular AEs such as diminished dark adaptation [7]: 5.8-6.7%

patisiran
ocular symptoms in clinical use [8]: symptoms of night blindness in a subset of patients
